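Five concentrations, 48 hours, 96-well plates. At the GI50, growth is halved.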 Activity calls are given as the source filed them. Rule as the data show it: active = GI50 up to about 1.1 µM and inactive = higher. Bounds are passed on as bounds.

Among the test systems are A549; NCI-H522; SF-295; MCF7; IGROV-1; MOLT-4; SK-MEL-2; OVCAR-8; HOP-62; KM12; SK-OV-3; SN12C; ACHN; SK-MEL-28; HCT-15; PC-3; A498; HT-29; RXF 393; SR.
What all share (test): NCI anticancer screen, dose series, 48 h

As to `Cc1cc(N)c2cc(NC(=O)Nc3ccc4nc(C)cc(N)c4c3)ccc2n1`, the GI50 with A549 was > 100 µM (inactive); in the test on NCI-H522, > 100 µM (inactive); with SF-295, 89.5 µM (inactive); with MCF7, > 100 µM (inactive); with IGROV-1, > 100 µM (inactive); in the test on MOLT-4, > 100 µM (inactive). The GI50 in the test with SK-MEL-2 was > 100 µM (inactive); in the test with OVCAR-8, > 100 µM (inactive); in the test with HOP-62 it was 61.8 µM (inactive); in the test on KM12, > 100 µM (inactive); in the test with SK-OV-3, > 100 µM (inactive); in the test with SN12C, > 100 µM (inactive). For the same molecule, the GI50 with ACHN is > 100 µM (inactive); in the test with SK-MEL-28 it was > 100 µM (inactive); with HCT-15 it was greater than 100 µM; with PC-3, > 100 µM (inactive); with A498, > 100 µM (inactive); in the test on HT-29, > 100 µM (inactive).
Take `COc1ccc2c(c1)C(=O)OCCC2`: the GI50 in the test on A549, in the test with NCI-H522, in the test with SF-295, with MCF7, in the test with RXF 393 and in the test on IGROV-1 was > 100 µM (inactive) in each case. Besides, the GI50 in the test on MOLT-4, in the test on SK-MEL-2, with OVCAR-8, in the test on HOP-62, in the test on KM12 and in the test on SK-OV-3 was > 100 µM (inactive) in each case. In addition, the GI50 with SN12C was > 100 µM (inactive); with ACHN, > 100 µM (inactive); with SK-MEL-28, > 100 µM (inactive); in the test on HCT-15, greater than 100 µM; in the test on PC-3, > 100 µM (inactive); in the test with A498, > 100 µM (inactive). Further, in the test with HT-29, the GI50 is > 100 µM (inactive).
With `COc1c(F)c(F)c(C(=O)/C=C2\Nc3ccccc3NC2=O)c(F)c1F`, the GI50 is 9.16 µM (inactive) in the test on A549; 5.52 µM (inactive) in the test with SF-295; > 10 µM (inactive) in the test with MCF7; 9.51 µM (inactive) in the test on RXF 393; 7.33 µM (inactive) with IGROV-1; > 10 µM (inactive) in the test on MOLT-4. Further, the GI50 with OVCAR-8 is 3.79 µM (inactive); with HOP-62, 4.41 µM (inactive); in the test on KM12, 8.22 µM (inactive); in the test with SR it was > 10 µM (inactive); in the test with SK-OV-3, 4.57 µM (inactive); in the test on SN12C, > 10 µM (inactive). The GI50 with SK-MEL-28 is 6.81 µM (inactive); in the test on HCT-15, greater than 10 µM; with PC-3 it was 7.57 µM (inactive); with HT-29, 6.98 µM (inactive).
Take `COP(=O)(OC)C12CCOCCN1c1ccccc1C2=O` (configuration not stated): the GI50 with A549, with NCI-H522, in the test on SF-295, in the test on MCF7, with IGROV-1 and in the test with MOLT-4 was > 100 µM (inactive) each time. Also, the GI50 in the test with SK-MEL-2, in the test with OVCAR-8, in the test on HOP-62, in the test with KM12, with SK-OV-3 and with SN12C was > 100 µM (inactive) in each case. In addition, the GI50 with ACHN is > 100 µM (inactive); with SK-MEL-28, > 100 µM (inactive); with HCT-15, greater than 100 µM; in the test with PC-3, > 100 µM (inactive); in the test with A498 it was > 100 µM (inactive); in the test on HT-29, > 100 µM (inactive).
In the case of `Cc1cn(C2OC(CO)C(O)C2F)c(=O)[nH]c1=O` (configuration not stated), the GI50 with A549 is 61.5 µM (inactive); in the test with NCI-H522, 19.3 µM (inactive); with SF-295 it was > 100 µM (inactive); in the test with MCF7 it was > 100 µM (inactive); in the test with RXF 393 it was 43 µM (inactive); with IGROV-1 it was > 100 µM (inactive). Besides, the GI50 was 64.3 µM (inactive) in the test on MOLT-4; > 100 µM (inactive) in the test on SK-MEL-2; > 100 µM (inactive) in the test with OVCAR-8; 95.3 µM (inactive) with HOP-62; > 100 µM (inactive) in the test with KM12; > 100 µM (inactive) in the test with SK-OV-3. The GI50 with SN12C was > 100 µM (inactive); in the test on ACHN, 89.7 µM (inactive); with SK-MEL-28, > 100 µM (inactive); with HCT-15, greater than 100 µM; in the test with PC-3, > 100 µM (inactive); in the test with A498, > 100 µM (inactive). The GI50 in the test with HT-29 was > 100 µM (inactive).
For `COC(=O)C(=O)C(C(=O)C(=O)Nc1ccc(Cl)c(Cl)c1)c1nc2ccc(C(=O)c3ccccc3)cc2nc1O` (configuration not stated), the GI50 in the test on A549 was > 100 µM (inactive); in the test on NCI-H522 it was 27.7 µM (inactive); in the test with SF-295, 49.4 µM (inactive); in the test with MCF7 it was 35.2 µM (inactive); with RXF 393, 38.4 µM (inactive); with IGROV-1, 33.5 µM (inactive). Moreover, the GI50 was 15 µM (inactive) in the test on MOLT-4; 97.9 µM (inactive) in the test on SK-MEL-2; 40.6 µM (inactive) in the test with OVCAR-8; 41.6 µM (inactive) in the test on HOP-62; 29 µM (inactive) with KM12; 97.3 µM (inactive) in the test with SK-OV-3. For the same molecule, the GI50 in the test with SN12C is > 100 µM (inactive); in the test on ACHN it was 46.5 µM (inactive); in the test with SK-MEL-28 it was 85.3 µM (inactive); with PC-3, 38.1 µM (inactive); in the test with A498, > 100 µM (inactive); in the test on HT-29, 44.2 µM (inactive).
With `c1ccc(CN2CCC3(CC2)SSC2(CCN(Cc4ccccc4)CC2)S3)cc1`, the GI50 in the test on A549 is 27.7 µM (inactive); in the test with SF-295, 26.5 µM (inactive); with IGROV-1, > 100 µM (inactive); in the test with MOLT-4 it was > 100 µM (inactive); in the test with SK-MEL-2 it was 76.7 µM (inactive); in the test with OVCAR-8 it was > 100 µM (inactive). The GI50 in the test with HOP-62 was > 100 µM (inactive); with KM12, 45.3 µM (inactive); with SR it was 28.8 µM (inactive); in the test on SK-OV-3, > 100 µM (inactive); in the test with SN12C, 87.1 µM (inactive); in the test on ACHN it was > 100 µM (inactive). Besides, the GI50 in the test with SK-MEL-28 was 44 µM (inactive); with HCT-15 it was 38.8 µM; in the test with PC-3, > 100 µM (inactive); with HT-29 it was 17.6 µM (inactive).
Turning to `O=[N+]([O-])c1ccc(/N=N/c2c(O)ccc3cc(S(=O)(=O)O)ccc23)cc1`, the GI50 in the test with A549, in the test with NCI-H522, with SF-295, in the test on RXF 393, with IGROV-1 and with MOLT-4 was > 100 µM (inactive) in each case. Also, the GI50 in the test with SK-MEL-2, in the test on OVCAR-8, in the test on HOP-62, with KM12, in the test with SK-OV-3 and with SN12C was > 100 µM (inactive) throughout. Further, the GI50 in the test on ACHN was > 100 µM (inactive); with SK-MEL-28, > 100 µM (inactive); with HCT-15, greater than 100 µM; in the test on PC-3 it was > 100 µM (inactive); in the test on A498, > 100 µM (inactive); in the test on HT-29 it was > 100 µM (inactive).
With `c1ccc(/N=C2/SC(c3ccccc3)(c3ccccc3)c3ccccc32)cc1`, the GI50 in the test on A549 was > 100 µM (inactive); in the test on NCI-H522 it was > 100 µM (inactive); in the test on SF-295 it was > 100 µM (inactive); in the test on MCF7, 87.7 µM (inactive); with RXF 393, > 100 µM (inactive); in the test on IGROV-1, > 100 µM (inactive). The GI50 in the test on MOLT-4, with SK-MEL-2, with OVCAR-8, in the test with HOP-62, in the test with KM12 and with SK-OV-3 was > 100 µM (inactive) in each case. In addition, the GI50 in the test on SN12C was > 100 µM (inactive); in the test with ACHN, > 100 µM (inactive); with SK-MEL-28, > 100 µM (inactive); in the test on HCT-15 it was greater than 100 µM; in the test with PC-3, > 100 µM (inactive); with A498, > 100 µM (inactive). Further, in the test with HT-29, the GI50 is > 100 µM (inactive).
With `O=C1C(=C/C=C2/SC(c3ccccc3)(c3ccccc3)c3ccccc32)C(=O)c2ccccc21`, the GI50 in the test on A549, with NCI-H522, in the test with SF-295, with MCF7, with RXF 393 and in the test on IGROV-1 was > 100 µM (inactive) each time. Further, the GI50 in the test on MOLT-4, in the test with OVCAR-8, in the test with HOP-62, in the test on KM12, in the test on SK-OV-3 and in the test with SN12C was > 100 µM (inactive) in each case. In addition, the GI50 is > 100 µM (inactive) in the test with ACHN; > 100 µM (inactive) with SK-MEL-28; greater than 100 µM with HCT-15; 80.7 µM (inactive) in the test on PC-3; > 100 µM (inactive) with A498; > 100 µM (inactive) with HT-29.
Regarding `C[C@]12CC(c3ccccc3O1)C(C(=O)NC13CC4CC(CC(C4)C1)C3)C(=O)N2` (some centres not stated), the GI50 in the test on A549 was 21.1 µM (inactive); with NCI-H522, 39 µM (inactive); with SF-295 it was 44.8 µM (inactive); in the test with MCF7, 39.5 µM (inactive); in the test with RXF 393, 25.6 µM (inactive); in the test on IGROV-1 it was 31.4 µM (inactive). Moreover, the GI50 in the test on MOLT-4 is 12 µM (inactive); with SK-MEL-2, 19.9 µM (inactive); with OVCAR-8, 26.6 µM (inactive); in the test on HOP-62 it was 44.3 µM (inactive); in the test on KM12 it was 35.5 µM (inactive); in the test on SK-OV-3, 64.9 µM (inactive). The GI50 in the test on ACHN is 34.1 µM (inactive); in the test with SK-MEL-28, 28.3 µM (inactive); in the test with HCT-15 it was 25.9 µM; in the test with PC-3, 32.1 µM (inactive); in the test with A498, 39.9 µM (inactive); with HT-29, 16.1 µM (inactive).

The record behind these values is ChEMBL document CHEMBL1201862, “PubChem BioAssay data set” (2004).
